# Columns and labels:
# Wistar rats [1] = details: open field test; cited from earlier work
# Wistar rats [2] = assay: acoustical startle reflex, pre-impulse inhibition in offspring of rats with hyperhomocysteinemia; assay type: in vivo, rat; details: pups day 45
# Source text: FIG. 13 is a graphic representation showing the inhibition of startle reaction to loud stimulus by pre-impulse in rats, where the histogram bars indicate the mean level of startle reaction after pre-stimulus as % to that of control group of rats (without hyperhomocisteinemia). l-m corresponds to group of rats treated with high L-methionine diet, and skq+lm corresponds to group of rats treated with high L-methionine diet and SkQ1.
# FIG. 14 is a graphic representation showing habituation of rats to double acoustic stimulus in normal conditions, under hyperhomocisteinemia and under hyperhomocisteinemia treated with SkQ1, where motor reaction to the double stimulus and P values for different pairs of groups is indicated.
# An experiment was performed on 161 female Wistar rats (n=12) with body weight 200 g-250 g and their offspring (n=149) from 0 to 1.5 months old. All animals were SPF-category and were housed under the standard conditions according to GLP-regulations (controlled microbiological conditions, light-dark cycle 12/12 hours, ventilation rate 10-12 V/h, room temperature 22+2° C., with maximum change 1° C. per day, humidity 30-70%). Rats were housed in individual cages with free access to food and water.
# Each female rat was held with 3 male rats for one night. First day of the pregnancy was considered to be the day when spermatozoon were found in a vaginal smear. […]
# [3] = system: chronically alcoholised rats; assay: elevated plus maze test of chronically alcoholised rats; assay type: in vivo, rat; details: SkQ1 250 nM solution orally every two days for 20 days, vs Negative Control
# Description: FIG. 10 is a graphic representation showing behavior parameters in the elevated plus-maze test of chronically alcoholised rats in % to intact control. (*−p<0.05; ** −p<0.005 to negative control; #—p<0.05, ##—p<0.01, to intact control);
# Male albino rats had free access to a 15% ethanol solution, as well as to food and water. After 6 months of alcoholisation, animals with average consumption more than 11 ml of 15% ethanol solution were divided into two even groups and subjected to the following treatment. The Negative Control group (n=16) (chronically alcoholised rats) were orally administered 1 ml per kg of isotonic 0.9% NaCl solution every two days for 20 days during alcohol deprivation. The SkQ1 group (n=17) (chronically alcoholised rats) were orally administered 1 ml per kg of SkQ1 250 nM solution every two days for 20 days during alcohol deprivation. The Intact Control group (n=10) (animals had no previous contact with ethanol) were orally administered 1 ml per kg of normal physiological solution every two days for 20 days.
# After this course of drug administration, the effect on behavioral parameters was observed using the open field test, the elevated plus maze test, and the Porsolt forced swimming test.
# Wistar rats [4] = assay: elevated plus maze, age-dependent behavioral defects; assay type: in vivo, rat; details: 14-month-old rats
# Source text: Rats of 3 months and 14 months old were investigated. An elevated plus maze with two open and two closed arms was used. Young animals placed in the maze center entered both types of arms with equal probability (FIGS. 2A and 2C). However, the 14-month-old rats preferred to enter the closed arms only (FIG. 2D), the probability of entering the open arms being extremely low. If, nevertheless, a 14-month-old rat entered an open arm, the animal immediately left this arm (FIG. 2B). […] This difference was also abolished by SkQ1 (Stefanova, et al., J. Alzheimer's Dis. 21:479-491 (2010)).
# Wistar rats [5] = assay: open field test 4 hours after ethanol narcosis; assay type: in vivo, rat; details: SkQ1 250 nM orally after ethanol narcosis; vs negative control, p<0.05
# Description: FIG. 5 is a schematic representation of the behavior parameters in the open field test 4 hours after ethanol narcosis of all groups in % to intact control. (*−p<0.05 for SKQ-1 250 nM compared to negative control);
# In these experiments, 6 groups of experimental animals (Wistar rats) were used. (1) The Intact Control group (n=12), had no ethanol narcosis, and were orally administered a normal isotonic 0.9% NaCl solution; (2) the Negative Control group (n=12) was orally administered a normal physiological solution after ethanol narcosis; (3) The SkQ1 50 nM control group (n=12) was orally administered SkQ1 in a concentration 50 nM after ethanol narcosis; (4) The SkQ1 250 nM control group (n=12) was orally administered SkQ1 in a concentration of 250 nM after ethanol narcosis; (5) The SkQ1 1250 nM control group (n=12) was orally administered SkQ1 in a concentration of 1250 nM after ethanol narcosis; (6) the SkQ1 1250 nM intr control group (n=13) was intraperitoneally administered SkQ1 in a concentration of 1250 nM after ethanol narcosis.
# In the Negative Control group ethanol intoxication caused a decrease of locomotor activity compared to Intact Control group: decreased track length (p<0.05), movement time (p<0.05), mean speed (p<0.05) and increased immobilization time (p<0.05) (FIG. 4). […]
# [6] = 250 nmol/kg daily in food for 10 weeks
compound,measurement,setting,value
"CC1=C(C)C(=O)C(CCCCCCCCCC[P+](c2ccccc2)(c2ccccc2)c2ccccc2)=CC1=O [SkQ1, plastoquinonyl decyltriphenyl-phosphonium]",difference in number of squares crossed between 14-month-old and 3-month-old rats,Wistar rats [1],abolished
same,parameters of pre-impulse inhibition of the progeny,Wistar rats [2]; SkQ1 250 nM/kg orally to mother rats once per 2 d during lactation,normalized
same,non stable and very high reflex reaction on sound stimuli (effect of hyperhomocisteinemia),Wistar rats [2]; SkQ1-treated group,significantly reduced
same,number of looking out from closed arms,[3],increased
same,rearing,[3]; p<0.005,increased
same,movement time in central zone,[3]; p<0.05,increased
same,track length in closed arms,[3]; p<0.05,increased
same,age effect in elevated plus maze,Wistar rats [4]; 250 nmol/kg body weight daily in food for 10 weeks,completely reversed
same,probability of entering an open arm,Wistar rats [4]; [6],as high as for young rats
same,time spent in open arm,Wistar rats [4]; [6],almost as long as for the young rodents
same,immobilization time,Wistar rats [5],decreasing
same,track length,Wistar rats [5],increasing

# Source: US20140329776A1, “Mitochondria-Targeted Antioxidants for Treatment of Age-Related Brain Disorders” (MITOTECH S.A., priority 2011, published 2014)
